Where a name gives a salt, the structure may show the parent alone. Read-outs that look alike come from different tables or passages of the source.
Key:
Human thrombin = Human thrombin (Homo sapiens, UniProt P00734); experiment: Anti-thrombin assay (hydrolysis of chromogenic substrate S-2238); type: biochemical; conditions: substrate S-2238, TNP buffer pH 7.4, 37° C., read-out: Antithrombin activity: IC50
Description: Thrombin (Factor IIa) is a factor in the coagulation cascade.
This assay for anti-thrombin activity in a buffer system was used to assess the IC50-value of a test compound.
Preparation of test and reference compound solutions
Each concentration is stepwise diluted with the vehicle to give concentrations of 10^−3, 10^−4 and 10^−5 mol·l^−1. The dilutions, including the stock solution, are used in the assay (final concentrations in the reaction mixture: 3·10^−3; 10^−3; 3·10^−4; 10^−4; 3·10^−5; 10^−5; 3·10^−6 and 10^−6 mol·l^−1, respectively).
At room temperature 0.075 ml and 0.025 ml test compound or reference compound solutions or vehicle are alternately pipetted into the wells of a microtiter plate and these solutions are diluted with 0.115 ml and 0.0165 ml TNP buffer, respectively. […] The plate is incubated (with shaking for 30 s) at 37° C.
All data are collected in an IBM personal computer using LOTUS-MEASURE. For each compound concentration (expressed in mol·l^−1 reaction mixture) and for the blank the absorbance is plotted versus the reaction time in min.
Evaluation of responses: For each final concentration the maximum absorbance was calculated from the assay plot.

Bovine Factor Xa = Bovine Factor Xa (Bos taurus, UniProt P00743); experiment: Anti-factor Xa assay (hydrolysis of chromogenic substrate S-2222); type: biochemical; conditions: substrate S-2222, TNP buffer, 37° C.
Sequence of Bovine Factor Xa (P00743 41-180 limits assumed): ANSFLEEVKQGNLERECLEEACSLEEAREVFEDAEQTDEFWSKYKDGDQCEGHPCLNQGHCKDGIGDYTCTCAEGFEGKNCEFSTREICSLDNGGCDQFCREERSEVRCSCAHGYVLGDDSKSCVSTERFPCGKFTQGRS
Sequence of Bovine Factor Xa (P00743 234-492 limits assumed): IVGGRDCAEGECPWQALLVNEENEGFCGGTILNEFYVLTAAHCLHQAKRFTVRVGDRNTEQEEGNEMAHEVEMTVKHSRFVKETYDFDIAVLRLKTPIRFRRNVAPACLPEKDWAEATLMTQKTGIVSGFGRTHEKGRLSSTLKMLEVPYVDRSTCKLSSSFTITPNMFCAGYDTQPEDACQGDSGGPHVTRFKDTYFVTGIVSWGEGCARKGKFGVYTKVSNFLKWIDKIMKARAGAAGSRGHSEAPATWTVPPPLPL
Description: Activated Factor X (Xa) is a factor in the coagulation cascade. […] This assay for anti-Xa activity in a buffer system was used to assess the IC50-value of the test compound.
In general the followed procedure and test conditions were analogous to those of the anti-thrombin assay as described above. Differences are indicated below.

Caco-2 cells [1] = experiment: Caco-2 permeability; conditions: 0.1 mM or 1 mM apical; mean of permeability between 2 and 3 hours, at least 2 filters
Description: (§1) In this in vitro model the transepithelial transport properties of a compound are determined in monolayers of a human intestinal cell-line (Caco-2) in terms of a permeability coefficient (apparent permeability).
(§2) Caco-2 cells were obtained from the American Type Culture Collection and were used in passage nrs 25 to 35. Cells were maintained at 37° C. in 75 cm^2 culture flasks (Nunc) in Dulbecco's Modified Eagle's Medium (DNEM) supplemented with 1% of non-essential amino acid solution (100×), 10% of heat-inactivated fetal bovine serum, penicillin (100 U/ml) and streptomycin (100 μg/ml) in an atmosphere of 95% of air and 5% of CO2. The pH of the medium was 7.4. For experiments cells were grown on Transwell-COL™ collagen treated cell culture filter inserts (Costar, Cambridge, Mass., USA) with a surface area of 0.33 cm^2 The seeding density was 6.3×10^5 cells/cm^2. Culture medium was added on each side of the filter. The growth of the cells and degree of confluency was checked every 2-3 days microscopically. Confluent monolayers were used on day 23-24 after seeding, at which time the transepithelial electrical resistance of the monolayers was at a stable value of approximately 260 Ω·cm^2. Permeability experiments were performed with compound concentrations of 0.1 mM or 1 mM in the apical compartment in Hanks' Balanced Salt Solution with or without 0.5% (w/v) of bovine serum albumin. At 1, 2 and 3 hours after addition of compound to the cells the filters were placed into fresh acceptor compartments. In this way three one-hour samples were obtained. Compound concentration was determined in samples from acceptor compartments and donor compartment by HPLC or by measuring anti-thrombin activity. Permeability experiments of each compound were performed with 4 different filters. Results shown in the Table are means of the permeability between 2 and 3 hours after the start of the experiment of at least 2 filters.

in vitro = conditions: human, Caco-2
Description: as §1, §2

Caco-2 permeability = conditions: human, Caco-2
Description: as §1, §2

Caco-2 cells [2] = test system: Caco-2 cells
Description: as §1, §2

## CC1CCN(C(=O)C(Cc2cc3c(N)nccc3s2)NS(=O)(=O)c2ccc3oc4ccccc4c3c2)CC1 (stereo not shown) [Example 32, 1-[3-(4-aminothieno[3,2c]pyridin-2-yl)-2-[[(2-dibenzofuranyl)sulfonyl]amino]-1-oxopropyl]-4-methylpiperidine hydrochloride]
Human thrombin
  IC50: 1.44 µM

## COC(=O)C(Cc1cc2c(N)nccc2s1)NC(=O)CNS(=O)(=O)c1ccc2ccccc2c1 (stereo not shown) [Example 3, 3-(4-aminothieno[3,2c]pyridin-2-yl)-2-[[2-[(2-naphthalenylsulfonyl)amino]acetyl]amino]-propionic acid methyl ester hydrochloride]
Bovine Factor Xa
  IC50: 29 µM

## COC(=O)C(Cc1ccc2c(N)nccc2c1)NC(=O)CNS(=O)(=O)c1ccc2ccccc2c1 (stereo not shown) [Example 1, 3-(1-amino-6-isoquinolinyl)-2-[[2-[(2-naphthalenylsulfonyl)amino]acetyl]amino]propionic acid methyl ester hydrochloride]
Bovine Factor Xa
  IC50: 48 µM

## COCCN(C)C(=O)C(Cc1cc2c(N)nccc2s1)NS(=O)(=O)c1ccc2ccc(OC)cc2c1 (stereo not shown) [Example 26, 3-(4-aminothieno[3,2c]pyridin-2-yl)-N-(2-methoxyethyl)-2-[[(7-methoxy-2-naphthalenyl)-sulfonyl]amino]-N-methyl-propanamide hydrochloride]
Bovine Factor Xa
  IC50: 14 µM

## COc1ccc2ccc(S(=O)(=O)NC(Cc3cc4c(N)nccc4s3)C(=O)N3CCC(C)CC3)cc2c1 (stereo not shown) [Example 18, 1-[1-(4-aminothieno[3,2c]pyridin-2-yl)-2-[[(7-methoxy-2-naphthalenyl)sulfonyl]amino]-1-oxopropyl]-4-methylpiperidine hydrochloride]
Human thrombin
  IC50: 0.53 µM

## Cl.Nc1nccc2sc(CC(NC(=O)CNS(=O)(=O)c3ccc4ccccc4c3)C(=O)N3CCCCC3)cc12 (stereo not shown) [Example 4, N-[1-[(4-Aminothieno[3,2c]pyridin-2-yl)methyl]-2-oxo-2-(1-piperidinyl)ethyl]-2-[(2-naphthalenylsulfonyl)amino]acetamide hydrochloride]
Caco-2 cells [1]
  Caco-2 Papp (apparent permeability): 2.5 ×10⁻⁶ cm/s

## Cc1c(C)c(S(=O)(=O)NCC(=O)NC(Cc2ccc3c(N)nccc3c2)C(=O)N2CCCCC2)c(C)c2c1OC(C)(C)CC2.Cl (stereo not shown) [Example 5, N-[1-[(1-Amino-6-isoquinolinyl)methyl]-2-oxo-2-(1-piperidinyl)ethyl]-2-[[(3,4-dihydro-2,2,5,7,8-pentamethyl-2H-1-benzopyran-6-yl)sulfonyl]amino]acetamide hydrochloride]
In vitro
  Papp A→B: 3.7 ×10⁻⁶ cm/s
Human thrombin
  IC50: 28 µM

## Cl.Nc1nccc2cc(CC(NC(=O)CNS(=O)(=O)c3ccc4ccccc4c3)C(=O)N3CCCCC3)ccc12 (stereo not shown) [Example 2, N-[1-[(1-amino-6-isoquinolinyl)methyl]-2-oxo-2-(1-piperidinyl)ethyl]-2-[(2-naphthalenyl-sulfonyl)amino]acetamide hydrochloride]
Caco-2 permeability
  Papp A→B: 1.9 ×10⁻⁶ cm/s

## CC1CCN(C(=O)C(Cc2cc3c(N)nccc3s2)NS(=O)(=O)CC23CCC(CC2=O)C3(C)C)CC1 [Example 30, 1-[3-(4-aminothieno[3,2c]pyridin-2-yl)-2-[[[1-(1R,4S)-(7,7-dimethyl-2-oxobicyclo[2,2,1]hept-1-yl)methyl]sulfonyl]amino]-1-oxopropyl]-4-methylpiperidine hydrochloride]
Human thrombin
  IC50: 35 µM

## Cc1c(C)c(S(=O)(=O)NNC(=O)NC(Cc2ccc3c(N)nccc3c2)C(=O)N2CCCCC2)c(C)c2c1OC(C)(C)CC2 (stereo not shown) [Example 10, 3,4-dihydro-2,2,5,7,8-pentamethyl-2H-1-benzopyran-6-ylsulfonic acid 2-[[[1-[(1-amino-6-isoquinolinyl)methyl]-2-oxo-2-(1-pineridinyl)ethyl]amino]carbonyl]hydrazide hydrochloride]
Human thrombin
  IC50: 1.1 µM

## Nc1nccc2cc(CC(NC(=O)[C@H](CO)NS(=O)(=O)c3ccc4ccccc4c3)C(=O)N3CCCCC3)ccc12 (stereo partly drawn) [Example 7, (2S)-N-[1-[(1-amino-6-isoquinolinyl)methyl]-2-oxo-2-(1-piperidinyl)ethyl]-3-hydroxy-2-[(2-naphthalenylsulfonyl)amino]propanamide hydrochloride]
Human thrombin
  IC50: 6.8 µM

## 1-[3-[3-(aminoiminomethyl)phenyl]-2-[(2-naphthalenyl-sulfonyl)amino]-1-oxopropyl]-4-(methylsulfonyl)piperazine [Pefa 1286]
Caco-2 cells [2]
  Caco-2 Papp (apparent permeability): 0.11 ×10⁻⁶ cm/s

Reference: US6797710B2, “Heterocyclic derivatives and their use as antithrombotic agents” (Akzo Nobel N.V., priority 1997, dated 2004)
